In patent US11903987B2, “Artificial compositions comprising corosolic acid, oleanolic acid; and ursolic acid in a form of an emulsion, salve, ointment, suspension, or gel” (National Guard Health Affairs, priority 2018, dated 2024):

What was measured:
human skin warts = experiment: topical treatment of human skin warts; assay type: in vivo; conditions: topical application
Protocol: Initial steps involved extracting Tecoma stans leaves with methanol or ethanol alcohol. Then, the extract was obtained via evaporating the alcohol and re-suspending the dry matter in pure DMSO (dimethylsulphoxide) at a concentration of 20 mg/mL DMSO. […] As disclosed herein, 14 compounds have been isolated from dry leaves of Tecoma stans, four of which are known for their antidiabetic effect and ability to reduce the glycemic index. After identifying the 14 compounds in the methanolic extract from the dry leaves, each compound was independently tested on human skin warts. […] Therefore, corosolic acid was mixed with its two related compounds, namely oleanolic acid (FIG. 1E) and ursolic acid (FIG. 1F), isolated from the same extract. Compositions containing a mixture of these three compounds were prepared by mixing the compounds in an ointment at a concentration of 1 mg/gm of each compound per a total weight of the ointment, emulsifying the compounds in a lotion base at a concentration of 0.1 mg/mL of each compound per a total volume of the lotion, or suspending three compounds together in DMSO at a concentration of 1 mg/mL of each compound per a total volume of DMSO. The compositions were applied topically twice a day to the desired skin area as indicated in each case (see FIGS. 3[…]).

[1] = skin tolerability on tested subjects after topical application; assay type: in vivo, human

Compound	curing effect on skin warts (human skin warts)	harmlessness on humans / skin irritation [1]
C[C@H]1[C@H](C)CC[C@]2(C(=O)O)CC[C@]3(C)C(=CC[C@@H]4[C@@]5(C)C[C@@H](O)[C@H](O)C(C)(C)[C@@H]5CC[C@]43C)[C@H]12 [corosolic acid, (2α,3β)-2,3-dihydroxyurs-12-en-28-oic acid]	minor curing effect	harmless on humans, and cause no skin irritations
CC1(C)CC[C@]2(C(=O)O)CC[C@]3(C)C(=CC[C@@H]4[C@@]5(C)CC[C@H](O)C(C)(C)[C@@H]5CC[C@]43C)[C@@H]2C1 [oleanolic acid]	–	harmless on humans, and cause no skin irritations
C[C@H]1[C@H](C)CC[C@]2(C(=O)O)CC[C@]3(C)C(=CC[C@@H]4[C@@]5(C)CC[C@H](O)C(C)(C)[C@@H]5CC[C@]43C)[C@H]12 [ursolic acid, 3β-Hydroxy-12-ursen-28-ic acid]	–	harmless on humans, and cause no skin irritations
